From ChEMBL document CHEMBL1201862, “PubChem BioAssay data set” (2004) come the findings set out here.

Each structure is given as a SMILES string.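 Method: 48-hour compound exposure of cells in 96-well plates, five concentrations, linear interpolation of endpoints. The concentration for 50% growth inhibition is given as GI50.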 The source made the active and inactive calls. Rule as the data show it: active = GI50 up to about 1.1 µM and inactive = higher. A value given as a limit tells only on which side of the number the result lay.

Test in all cases: inhibition of tumour cell growth, NCI panel, 48 h
The test system of assay [1] is NCI-H226.
For assay [2], the system named is 786-0.
Assay [3] deals with SR.
For assay [4], the system named is OVCAR-8.
Assay [5] has as its system EKVX.
Assay [6] relates to SN12C.
For assay [7], the system named is K562.
For assay [8], the system named is LOX IMVI.
In assay [9] the test system is SF-539.
Assay [10] has as its system A498.
In assay [11] the test system is A549.
The subject of assay [12] is SK-OV-3.
Assay [13] deals with ACHN.
Assay [14] concerns NCI-H460.
In assay [15] the test system is PC-3.
For assay [16], the system named is T47D.
The test system of assay [17] is DU-145.
For assay [18], the system named is MDA-MB-435.
Assay [19] concerns MCF7.

For `COc1ccccc1NC(=O)C(=O)C1C(=O)Nc2ccccc2[S+]1[O-]` (centres undefined), the GI50 in assay [1], in assay [2], in assay [3], in [4], in [5] and in assay [6] was > 100 µM (inactive) throughout. In addition, the GI50 in [7], in [8], in assay [9], in assay [10], in [11] and in [12] was > 100 µM (inactive) each time. For the same compound, the GI50 in assay [13] and in assay [14] was > 100 µM (inactive) throughout.
For `O=c1/c(=C/c2ccco2)sc2nc3ccccc3n12`, the GI50 was > 10 µM (inactive) in [1]; > 10 µM (inactive) in [2]; > 10 µM (inactive) in assay [3]; > 10 µM (inactive) in assay [4]; 59.2 µM (inactive) in assay [5]; > 10 µM (inactive) in assay [6]. In addition, the GI50 in assay [7] was > 10 µM (inactive); in assay [8], > 10 µM (inactive); in assay [9] it was > 10 µM (inactive); in [10] it was > 10 µM (inactive); in assay [11] it was > 10 µM (inactive); in assay [12], > 100 µM (inactive). Besides, the GI50 in assay [13] and in [14] was > 10 µM (inactive) each time.
Regarding `c1ccc([S+](c2ccccc2)c2ccc(Sc3ccc([S+](c4ccccc4)c4ccccc4)cc3)cc2)cc1`, the GI50 in assay [1] was 25.5 µM (inactive); in [2], 43.8 µM (inactive); in assay [3] it was 6.44 µM (inactive); in assay [4] it was 20.3 µM (inactive); in [5] it was 73.6 µM (inactive); in assay [6], 17.9 µM (inactive). Further, the GI50 is 1.17 µM (inactive) in assay [7]; 18.6 µM (inactive) in assay [8]; 31.3 µM (inactive) in [9]; 44.4 µM (inactive) in [10]; 9.79 µM (inactive) in assay [11]; 21.9 µM (inactive) in assay [12]. Also, the GI50 in assay [13] is 26.4 µM (inactive); in assay [14], 29.6 µM (inactive).
For `CCC(C)N1CN(c2ccccc2)C2(CCN(CCCSc3ccc(F)cc3)CC2)C1=O` (centres undefined), the GI50 in assay [1] is 4.34 µM (inactive); in [15], 6.35 µM (inactive); in assay [2], 2.89 µM (inactive); in [3], 3.32 µM (inactive); in assay [16], 2.99 µM (inactive); in [4] it was 6.17 µM (inactive). Also, the GI50 in [17] was 3.03 µM (inactive); in assay [5], 3.33 µM (inactive); in [6], 3.78 µM (inactive); in assay [7] it was 2.22 µM (inactive); in assay [18] it was 3.05 µM (inactive); in assay [8] it was 3.05 µM (inactive). Moreover, the GI50 was 2.57 µM (inactive) in [9]; 3.94 µM (inactive) in assay [11]; 3.09 µM (inactive) in assay [19]; 4.92 µM (inactive) in assay [12]; 3.15 µM (inactive) in [13].
With `CCN1CCN=C2c3cc(OC)ccc3Nc3c([N+](=O)[O-])ccc1c32`, the GI50 in [15] is 1 µM (active); in assay [2], 0.512 µM (active); in [3], 0.244 µM (active); in [16] it was 3.32 µM (inactive); in assay [4], 0.621 µM (active); in assay [17], 2.72 µM (inactive). Further, the GI50 in assay [5] was 2.12 µM (inactive); in [6] it was 0.796 µM (active); in assay [7], 0.473 µM (active); in [18] it was 1.01 µM (active); in [11], 0.667 µM (active); in assay [19], 1.28 µM (inactive). The GI50 in assay [12] was 2.43 µM (inactive).
On to `COC(=O)C(C(=O)C(=O)Nc1ccccc1C)c1nc2ccc([N+](=O)[O-])cc2nc1O` (centres undefined), for which the GI50 in [1], in assay [2], in assay [3], in assay [4], in assay [5] and in assay [6] was > 100 µM (inactive) in each case. Besides, the GI50 in assay [7], in assay [8], in [9], in assay [10], in assay [11] and in [12] was > 100 µM (inactive) each time. In addition, the GI50 in [13] and in assay [14] was > 100 µM (inactive) throughout.
As for `CCOC(=O)C(C)(C)Oc1ccc2c(C)c(-c3ccc(Cl)cc3)c(=O)oc2c1`, the GI50 was 14.9 µM (inactive) in assay [1]; > 100 µM (inactive) in [2]; 27.7 µM (inactive) in assay [3]; > 100 µM (inactive) in assay [4]; 70.3 µM (inactive) in [5]; > 100 µM (inactive) in [6]. The GI50 in assay [7] was 14.7 µM (inactive); in assay [8] it was 34.9 µM (inactive); in assay [9], > 100 µM (inactive); in assay [10], > 100 µM (inactive); in assay [11], 37.6 µM (inactive); in assay [13] it was 98.6 µM (inactive). Moreover, the GI50 in assay [14] was > 100 µM (inactive).
For the compound `CC1N[B@@-](C)(c2ccc(C(F)(F)F)cc2)OC1c1ccccc1` (some centres undefined), the GI50 in assay [1] was > 100 µM (inactive); in assay [15], 53.3 µM (inactive); in assay [2], > 100 µM (inactive); in assay [3], 31.3 µM (inactive); in assay [16], > 100 µM (inactive); in assay [4] it was > 100 µM (inactive). Moreover, the GI50 is > 100 µM (inactive) in assay [17]; 41.4 µM (inactive) in assay [5]; > 100 µM (inactive) in assay [6]; 66.2 µM (inactive) in assay [7]; > 100 µM (inactive) in [18]; 98.2 µM (inactive) in [8]. The GI50 is 58.9 µM (inactive) in assay [10]; > 100 µM (inactive) in assay [11]; 59.7 µM (inactive) in [19]; > 100 µM (inactive) in [12]; 36.9 µM (inactive) in [13]; > 100 µM (inactive) in assay [14].
On to `C=C1CC2C(=O)N(c3ccccc3)C(=O)C2CC1n1[nH]c(=O)n(Cc2ccccc2)c1=O` (centres undefined), for which the GI50 in [1], in assay [2], in assay [3], in assay [4], in assay [5] and in assay [6] was > 100 µM (inactive) each time. The GI50 in assay [7], in assay [8], in assay [9], in assay [10], in assay [11] and in assay [12] was > 100 µM (inactive) each time. In addition, the GI50 in assay [13] and in assay [14] was > 100 µM (inactive) throughout.
Turning to `CCC1(OC(C)=O)C(=O)OCc2c1cc1n(c2=O)Cc2cc3ccccc3nc2-1` (centres undefined), the GI50 in assay [1] was 0.869 µM (active); in assay [2] it was 0.564 µM (active); in assay [3], 0.276 µM (active); in assay [4], 2.45 µM (inactive); in [5] it was 12.8 µM (inactive); in assay [6], 0.638 µM (active). Moreover, the GI50 in assay [7] was 3.1 µM (inactive); in [8] it was 1.01 µM (active); in [9], 0.568 µM (active); in [10], 2.55 µM (inactive); in assay [11], 1.16 µM (inactive); in assay [12], 2.28 µM (inactive). Besides, the GI50 in [13] is 0.455 µM (active); in assay [14] it was 0.262 µM (active).
On to `CC(=O)[C@@H]1[C@@H](OC(=O)CCC(C)COC2OC(CO)C(O)C(O)C2O)C[C@H]2[C@@H]3CC=C4C[C@@H](OC5OC(CO)C(OC6OC(C)C(O)C(O)C6O)C(O)C5OC5OC(C)C(O)C(O)C5O)CC[C@]4(C)[C@H]3CC[C@]12C` (some centres undefined), for which the GI50 in assay [15], in [2], in [3], in assay [16], in [4] and in [17] was > 100 µM (inactive) each time. The GI50 in [5], in [6], in assay [7], in assay [18], in assay [8] and in assay [10] was > 100 µM (inactive) in each case. The GI50 in [11], in [19], in assay [12], in assay [13] and in [14] was > 100 µM (inactive) throughout.
Take `CC(=O)OC[C@@H](COC(=O)/C=C/c1ccc(O)cc1)OC1OC(CO)C(O)C(O)C1O` (some centres undefined): the GI50 in assay [1], in assay [2], in assay [3], in assay [4], in [17] and in [5] was > 100 µM (inactive) each time. The GI50 in assay [6], in [7], in [8], in assay [9], in assay [10] and in assay [11] was > 100 µM (inactive) each time. Moreover, the GI50 in assay [12], in assay [13] and in assay [14] was > 100 µM (inactive) each time.
As to `CC(=O)O[C@@H]1O[Si](C(C)(C)C)(C(C)(C)C)[C@H](C)[C@H]1C`, the GI50 in assay [1] is > 100 µM (inactive); in assay [15], 33 µM (inactive); in assay [2], 33.5 µM (inactive); in assay [3] it was > 100 µM (inactive); in [16], > 100 µM (inactive); in assay [4], > 100 µM (inactive). Further, the GI50 in assay [5] is 41.7 µM (inactive); in [6] it was > 100 µM (inactive); in assay [7] it was 31.8 µM (inactive); in assay [18] it was 94.8 µM (inactive); in assay [8], 25.8 µM (inactive); in assay [9], > 100 µM (inactive). The GI50 in [10] was > 100 µM (inactive); in assay [11], 41 µM (inactive); in [19], 19.1 µM (inactive); in [12] it was > 100 µM (inactive); in assay [13], > 100 µM (inactive).
